Measurements from publication PMC8347162, “A Cyclic BMP-2 Peptide Upregulates BMP-2 Protein-Induced Cell Signaling in Myogenic Cells” (Polymers, 2021).
Where two headings read alike, the source gives them in different places. Positions of bridges follow the written chain, without caps; N, C: chain ends. Residues, ends and D or L forms follow the SMILES beside them.

Molecular target: T1, BMPRII (Homo sapiens, UniProt Q13873)
T1 construct: purchased R&D
T1 sequence (Q13873 27-151 limits assumed): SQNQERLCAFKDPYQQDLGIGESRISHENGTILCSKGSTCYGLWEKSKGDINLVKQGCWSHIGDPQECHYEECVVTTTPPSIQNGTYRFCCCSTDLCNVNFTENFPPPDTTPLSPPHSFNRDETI
Assay: SPR binding of peptides to immobilized BMPRII
Conditions: for kon / koff: BMPRII immobilized on COOH5 chip (2000 RU), peptide injected 120 s at 5 μL/min, 5 min dissociation; for kon: read-out: Association Rate Constant ka; for koff: read-out: Dissociation Rate Constant kd
Method: SPR was performed using SensiQ discovery ((ICX Nomadics, Oklahoma City, OK, USA) SPR. For the affinity experiments, all the samples were dissolved in phosphate-buffered saline (PBS, pH 7.4) (UniRegion Bio-Tech, New Taipei City, Taiwan) containing 150 mM NaCl (St. Louis, MI, USA). The same buffer was also used as the running buffer. To immobilize the BMPRII, the active and reference flow cells of a COOH5 sensor chip (ICX Nomadics, Oklahoma City, OK, USA) carboxylic chip were activated with 1-ethyl-3-(3-(dimethylamino)-propyl) carbodiimide hydrochloride (EDC) and N-hydroxysuccinimide (NHS) (Cytiva, Marlborough, MA, USA) for 5 min. BMPRII protein diluted to 20 μg/mL with acetate buffer (pH4.5) (APOLO biochemical Inc., New York, NY, USA) was injected over the active cell for 3 min at 10 μL/min, resulting in an immobilization level of 2000 RU. Both the reference flow cell and active flow cell were blocked with ethanolamine (Bio Rad, Hercules, CA, USA), pH 8.5 for 6 min. The system was then switched to running buffer, and different concentrations of the peptide were injected for 120 s at 5 μL/min, with 5 min of dissociation. The binding data were analyzed using the BIA-evaluation software 3.0 (BIACORE, Uppasala, Sweden).
We first investigated the binding affinity of these five peptides for BMPRII using SPR. Each peptide was individually passed over a Sensiq […] chip pre-immobilized with BMPRII.

[1] = BMPRII immobilized on COOH5 chip, PBS pH 7.4 with 150 mM NaCl, P-02 from saturation binding curve, read-out: Equilibrium Rate Constant KD

Compound | kon (PBS pH 7.4 with 150 mM NaCl) [M⁻¹ s⁻¹] | koff (PBS pH 7.4 with 150 mM NaCl) [s⁻¹] | Kd [1] [µM] | Kd (as printed in text b26 without unit, read-out: equilibrium rate constant (KD) against BMPRII) [µM]
CC[C@H](C)[C@H](NC(=O)[C@H](C)NC(=O)[C@H](CO)NC(=O)[C@H](CC(C)C)NC(=O)[C@H](CCC(=O)O)NC(=O)[C@@H](NC(=O)[C@@H]1CCCN1C(=O)[C@@H](NC(=O)[C@H](CO)NC(=O)[C@H](CO)NC(=O)[C@H](C)NC(=O)[C@H](CCCCN)NC(=O)[C@@H]1CCCN1C(=O)[C@@H](NC(=O)[C@@H](N)CCCCN)[C@@H](C)CC)C(C)C)[C@@H](C)O)C(=O)N[C@@H](CO)C(=O)N[C@H](C(=O)N[C@@H](CC(C)C)C(=O)N[C@@H](Cc1ccc(O)cc1)C(=O)N[C@@H](CC(C)C)C(N)=O)[C@@H](C)O [P-01] (H-KIPKASSVPTELSAISTLYL-NH2) | 0.27 | 0.0221 |  | 
CC[C@H](C)[C@H](NC(=O)[C@H](C)NC(=O)[C@H](CO)NC(=O)[C@@H]1CSSC[C@H](N)C(=O)N[C@@H](CCCCN)C(=O)N[C@@H]([C@@H](C)CC)C(=O)N2CCC[C@H]2C(=O)N[C@@H](CCCCN)C(=O)N[C@@H](C)C(=O)N[C@@H](CO)C(=O)N[C@@H](CO)C(=O)N[C@@H](C(C)C)C(=O)N2CCC[C@H]2C(=O)N[C@@H]([C@@H](C)O)C(=O)N[C@@H](CCC(=O)O)C(=O)N[C@@H](CC(C)C)C(=O)N1)C(=O)N[C@@H](CO)C(=O)N[C@H](C(=O)N[C@@H](CC(C)C)C(=O)N[C@@H](Cc1ccc(O)cc1)C(=O)N[C@@H](CC(C)C)C(N)=O)[C@@H](C)O [P-03] (H-CKIPKASSVPTELCSAISTLYL-NH2; disulfide 1-14) | 352 | 0.0333 |  | 
CC[C@H](C)[C@@H]1NC(=O)[C@H](C)NC(=O)[C@H](CO)NC(=O)[C@H](CC(C)C)NC(=O)[C@H](CCC(=O)O)NC(=O)[C@H]([C@@H](C)O)NC(=O)[C@@H]2CCCN2C(=O)[C@H](C(C)C)NC(=O)[C@@H](NC(=O)[C@H](CO)NC(=O)[C@H](CO)NC(=O)[C@H](C)NC(=O)[C@H](CCCCN)NC(=O)[C@@H]2CCCN2C(=O)[C@@H](NC(=O)[C@@H](N)CCCCN)[C@@H](C)CC)CSSC[C@@H](C(N)=O)NC(=O)[C@H](CC(C)C)NC(=O)[C@H](Cc2ccc(O)cc2)NC(=O)[C@H](CC(C)C)NC(=O)[C@H]([C@@H](C)O)NC(=O)[C@H](CO)NC1=O [P-04] (H-KIPKASSCVPTELSAISTLYLC-NH2; disulfide 8-22) | 460 | 0.0106 | 23.1 | 
CC[C@H](C)[C@@H]1NC(=O)[C@H](C)NC(=O)[C@H](CO)NC(=O)[C@H](CC(C)C)NC(=O)[C@H](CCC(=O)O)NC(=O)[C@H]([C@@H](C)O)NC(=O)[C@@H]2CCCN2C(=O)[C@H](C(C)C)NC(=O)[C@H](CO)NC(=O)[C@H](CO)NC(=O)[C@H](C)NC(=O)[C@H](CCCCN)NC(=O)[C@@H]2CCCN2C(=O)[C@H]([C@@H](C)CC)NC(=O)[C@H](CCCCN)NC(=O)[C@@H](N)CSSC[C@@H](C(N)=O)NC(=O)[C@H](CC(C)C)NC(=O)[C@H](Cc2ccc(O)cc2)NC(=O)[C@H](CC(C)C)NC(=O)[C@H]([C@@H](C)O)NC(=O)[C@H](CO)NC1=O [P-05] (H-CKIPKASSVPTELSAISTLYLC-NH2; disulfide 1-22) | 37.8 | 0.000487 | 12.9 | 
P-02: Cyclic disulfide BMP-2 peptide, N-terminal and C-terminal regions outside the cyclic structure (KIPKCSSVPTELSCISTLYL; not fully specified; Intramolecular disulfide Cys5-Cys14; probably C-terminal amide (Rink amide resin); Parent is BMP-2 mature 73-92 (offset +282) in the P) |  |  | 80.6 | 80.6
